Results reported in PubChem BioAssay AID2305 (GlaxoSmithKline (GSK), 2010).

system: P. falciparum 3D7 growth, pLDH absorbance; test: blood-stage malaria parasite growth potency – strain 3D7, dose response (AID 2305)

Point of comparison: `Cc1cc(N(C)CCN(C)C)nc(Nc2ccc(Cl)cc2)n1`, IC50 0.97 µM. Against it:
- O=C(/C=C/c1ccc(C(F)(F)F)cc1)NCCCCCN1CCCN(C(=O)Nc2ccc(F)c(Cl)c2)CC1 — 2.6-fold lower, 0.37 µM
- Cc1[nH]c(C)c(-c2ccc(OCCOc3ccc(C(F)(F)F)cn3)cc2)c(=O)c1Br — 6.9-fold lower, 0.14 µM
- CCN(CC)CCn1c(=N)n(CC(O)c2ccc(Cl)c(Cl)c2)c2ccccc21 (configuration not stated) — within 1.5-fold, 0.79 µM
- COc1ccc(S(=O)(=O)Nc2cc(Br)cc3c2OCCC3)cc1N1CCN(C(=O)C(Cl)(Cl)Cl)CC1 — within 1.5-fold, 0.87 µM
- c1ccc(Oc2ccc(Nc3ccnc4cc(-c5ccc(CN6CCOCC6)o5)ccc34)cc2)nc1 — within 1.5-fold, 0.91 µM
- O=C(CCC1CCCCC1=O)c1ccccc1 (configuration not stated) — within 1.5-fold, 0.77 µM
- Cc1cccc2[nH]c(-c3cccc(-c4ccc(NC(=O)Nc5cccc(C#N)c5)cc4)c3)nc12 — 5.1-fold lower, 0.19 µM
- CN(CCc1ccccc1)c1ncc(-c2ccccc2CNCc2ccccc2O)cn1 — within 1.5-fold, 1.02 µM
- COc1cc(NC(=O)c2sc(-c3ccc(Cl)cc3)cc2NC(=O)CN2CC[C@@H](O)C2)ccc1OCCN1CCCC1 — within 1.5-fold, 0.8 µM
- CN(C)c1ccc(C=Cc2ccc3ccccc3n2)c(Cl)c1 — 2.2-fold lower, 0.44 µM
- Cc1noc(C)c1-c1cccc(CNCc2cccc(-c3cccc(-c4nc5ccc(F)cc5[nH]4)c3)c2)c1 — 5.4-fold lower, 0.18 µM
- CCOC(=O)c1[nH]c(-c2cccnc2)nc1NC(=S)NCc1ccccc1 — within 1.5-fold, 0.71 µM
- COc1ccc(C2CC(=O)C3=C(C2)NC(C)=C(C(=O)OC2CCCC2)C3c2ccc(O)cc2)cc1OC (configuration not stated) — 1.7-fold lower, 0.57 µM
- COc1ccc(C2CC(c3cccs3)=NN2C(=O)CNc2ccccc2F)cc1OC (configuration not stated) — 1.5-fold lower, 0.63 µM
- CCn1cc(C=C2Oc3c(ccc(O)c3CN3CCCCC3)C2=O)c2cc(OC)ccc21 — 1.9-fold lower, 0.52 µM
- Cc1ccc(CNC(=O)[C@H](CCCN)Nc2nc(Nc3ccccc3)ncc2C)cc1 — 1.6-fold higher, 1.53 µM
- COc1cccc(-c2ccc(NC(=O)C3CCCN(Cc4cccc(OC)c4O)C3)cc2)c1 (configuration not stated) — within 1.5-fold, 0.85 µM
- CCOC(=O)C1=C(C)N=c2sc(=Cc3cc(Cl)ccc3O)c(=O)n2C1c1cc(OC)c(OC)cc1Br (configuration not stated) — within 1.5-fold, 0.99 µM
- CN1CCC(C(=O)Nc2cccc(-c3ccc(-c4nc5ccccc5[nH]4)cc3)c2)CC1 — within 1.5-fold, 1.09 µM
- COc1ccc(-n2cc(CNCCCn3ccnc3)c(-c3cccc(F)c3)n2)cc1 — within 1.5-fold, 1.06 µM
- CC(=O)C1(c2ccccc2)CCN(CCC2(c3ccc(Cl)c(Cl)c3)CN(C(=O)C3CCCCC3)CCO2)CC1 (configuration not stated) — 3.1-fold lower, 0.31 µM
- Cn1ncc2c3c(CCN4CCC(NCc5cc6c(cn5)OCCO6)CC4)c(Cl)cnc3ccc21 — within 1.5-fold, 0.77 µM
- COc1ccc(-c2cccc(NC(=O)c3ccc(C#N)cc3)c2)cc1CN1CCCN(C)CC1 — within 1.5-fold, 0.76 µM
- Oc1cccc(-c2nc(-c3ccccc3)c(-c3ccc(Oc4ccc(-c5[nH]c(-c6cccc(O)c6)nc5-c5ccccc5)cc4)cc3)[nH]2)c1 — within 1.5-fold, 0.86 µM
- CC(=O)c1ccc(-c2cccc3c(CC(=O)Nc4ccc5nccc(N6CCN(C)CC6)c5c4)cccc23)cc1 — 1.9-fold lower, 0.5 µM
- CCOC(=O)[C@H](Cc1cccc2ccccc12)NC(=O)[C@H](CCC(=O)OC(C)(C)C)NC(=O)c1ccc(N(C)Cc2cnc3nc(N)nc(N)c3n2)cc1 — within 1.5-fold, 0.66 µM
- Cc1cccc2[nH]c(-c3ccc(-c4cccc(NC(=O)Nc5ccc6c(c5)OCO6)c4)cc3)nc12 — within 1.5-fold, 0.74 µM
- O=C(NC1CCC(N2CCC(c3nc4ccccc4s3)CC2)CC1)c1cc2ccccc2[nH]1 (configuration not stated) — within 1.5-fold, 0.93 µM
- CN1CCN(CC(=O)Nc2ccc(-c3ccc(-c4nc5ccc(C(F)(F)F)cc5[nH]4)s3)cc2)CC1 — 1.7-fold lower, 0.57 µM
- CCN(CC)CCCCCNc1c2ccc(Cl)cc2nc2ccc(OC)cc12 — 19-fold lower, 0.05 µM
- Cc1ccc(C)c(NC(=O)NCCNc2ccnc(Nc3ccc(F)cc3)n2)c1 — within 1.5-fold, 0.82 µM
- Cc1cc(-c2ccc(NC(=O)N3CCc4cc(Cl)c(N5CCN(C)CC5)cc43)cc2)ccc1C#N — 1.6-fold lower, 0.59 µM
- CCOC(=O)c1[nH]c2cc(Cl)cc(Cl)c2c1/C=C/C(=O)Nc1ccc(-c2cnc(NC(C)=O)[nH]2)cc1 — within 1.5-fold, 1.02 µM
- NS(=O)(=O)c1cccc(Nc2nccc(-c3c(-c4cccc(NC(=O)c5c(F)cccc5F)c4)nn4ccccc34)n2)c1 — 14-fold lower, 0.07 µM
- N#Cc1cc(C(=O)Nc2ccccc2)c(N)nc1SCC(=O)NC(c1ccccc1)c1cccs1 (configuration not stated) — 1.6-fold lower, 0.61 µM
- O=C(Nc1ccc(NC2=NCCN2)cc1)c1ccc(C(=O)Nc2ccc(NC3=NCCN3)cc2)cc1 — within 1.5-fold, 0.65 µM
- CCCCCCNC(=O)C1Cc2c([nH]c3ccc(F)cc23)C2(CCN(Cc3ccccc3)CC2)N1 (configuration not stated) — within 1.5-fold, 0.87 µM
- CC[C@H]1CN2CC[C@@H]1C[C@H]2[C@H](O)c1cc(N2CCCC(C)(C)C2)nc2ccc(OC)cc12 — 2.9-fold lower, 0.34 µM
- Oc1ccc(CCNCc2ccc(OCc3ccccc3)c(OCc3ccccc3)c2)cc1 — 1.6-fold higher, 1.51 µM
- Clc1cnc2ccc3c(c2c1CCN1CCC(NCc2cc4c(cn2)OCCO4)CC1)OCCO3 — within 1.5-fold, 0.72 µM
- Cc1cccc2[nH]c(-c3cccc(-c4cccc(CNCc5ccccc5)c4)c3)nc12 — 2.5-fold lower, 0.39 µM
- COc1cc(Cc2cnc(N)nc2N)cc(OCCCc2cc(OCc3ccccc3)no2)c1OC — 1.9-fold higher, 1.87 µM
- Cc1cccc2[nH]c(-c3ccc(-c4cccc(CNC5CCN(C)CC5)c4)s3)nc12 — 5.4-fold lower, 0.18 µM
- Cn1c(=N)cc(-c2ccc(Br)cc2)c2c(=O)[nH]c(N)nc21 — within 1.5-fold, 1.13 µM
- COc1ccc(-c2ccc(NC(=O)c3cccc(Cl)c3)cc2)cc1CN(C)CCN(C)C — within 1.5-fold, 0.78 µM
- CC(=O)Nc1nc(C(=O)Nc2ccc(-c3cccc(-c4nc5c(C)cccc5[nH]4)c3)cc2)cs1 — 4.2-fold lower, 0.23 µM
